The text below walks through data of US11191855B2, “1,7-diaryl-1,6-heptadiene-3,5-dione derivatives, methods for the production and use thereof” (UNIVERSITÄTSKLINIKUM REGENSBURG, priority 2015, dated 2021).

The assay deals with S. aureus ATCC 25923. The experiment in a line: Phototoxicity test c.2) (BlueV light source, emission maximum approx. 420 nm, CFU count). The format is cell-based, Staphylococcus aureus. The conditions noted are these: Staphylococcus aureus, ATCC25923, light or radiation study, 5 min, irradiation 5 minutes, approx. 420 nm, 17.5 mW/cm^2, 5.3 J/cm^2, vs reference control; for log reduction at 10 µM: read-out: Effectiveness against S. aureus: Reduction in CFU in log10 at concentration of 10 μM; for log reduction at 50 µM: read-out: Effectiveness against S. aureus: Reduction in CFU in log10 at concentration of 50 μM. Here is the method: A sample of the bacterial cell Staphylococcus. aureus (ATCC number: 25923) or Escherichia. coli (ATCC number: 25922) was removed from a cryo-freeze culture and cultured under aerobic conditions at 37° C. and 175 rpm overnight in an orbital shaker (MAXQ4000, Thermo Scientific, Dubuque, Iowa, USA). Growth was carried out in 20 mL Todd-Hewitt broth (Carl Roth, Karlsruhe, Germany) supplemented with 0.3% of yeast extract (AppliChem, Darmstadt, Germany). In a second experiment, the photosensitizers (PS) used were dissolved in Millipore water and adjusted to various concentrations. 25 μL of a bacterial suspension grown overnight ( 108/mL) was incubated with 25 μL of photosensitizer solution of the various concentrations at room temperature for 10 seconds in darkness in a 96-well plate. Next, the suspension was irradiated for 5-20 minutes. For the irradiation, the light source BlueV from […], Germany) was used, which emits light from 380 to 480 nm (emission maximum at approximately 420 nm). The applied energy density was 17.5 mW/cm^2. Each experiment was accompanied by three controls in order to exclude side effect of the irradiation/photosensitizer (PS) on the survival of the bacteria: (i) no PS, only light (=light control), (ii) no light, only PS (=dark control) and (iii) neither light nor PS (=reference control). […] All of the tests were carried out four times. […] All of the remaining PS were tested against S. aureus ATCC 25923 (FIGS. 24-33). FIGS. 21-33 show the logarithmic reduction after illumination with respect to the reference control. […] The irradiation period was 5 minutes (emission maximum at approximately 420 nm) for an applied intensity of 17.5 mW/cm^2, i.e. an applied light energy (dosage) of 5.3 J/cm^2. The average reference control (arithmetic mean with standard deviation) (no light, no PS) was 3.9×10^8/mL. The logarithmic reduction after illumination is shown with respect to the reference control.

Structures are written as SMILES.

Consider `COc1cc(/C=C/C(=O)CC(=O)/C=C/c2ccc(OCCN)c(OC)c2)ccc1OCCN.Cl.Cl` [Curcumin 01a hydrochloride], for which the log reduction at 10 µM was greater than 3 and the log reduction at 50 µM is greater than 5.
The corresponding values for `Cl.Cl.Cl.Cl.NCCOc1ccc(/C=C/C(=O)CC(=O)/C=C/c2ccc(OCCN)c(OCCN)c2)cc1OCCN` [Curcumin 03 hydrochloride] are greater than 4 and greater than 5.
